In patent US10336716B2, “Thermodynamically stable crystal modification of 2-methyl-N-(5-methyl-1, 3, 4-oxadiazol-2-yl)-3-(methylsulfonyl)-4-(trifluoromethyl)benzamide” (Bayer CropScience Aktiengesellschaft, priority 2015, dated 2019):

Columns and labels:
Type in all cases: physicochemical
[1] = wettability on mixing with water (first comparative experiment)
Source text: Moreover, the benzamide obtainable according to the disclosure of WO 2012/126932 A1 has the disadvantage that it can be less readily worked up, filtered, purified and wetted with solvents. […] These disadvantages are overcome by the provision of the thermodynamically stable benzamide according to the invention.

[2] = testing in practice of suspension formulations; conditions: suspension formulation, benzamide finely ground in solid form
Source text: The benzamide known for example from WO 2012/126932 A1 (example No. 2-145 in table 2 therein) has herbicidal properties and is suitable for the production of crop protection compositions which can be employed for weed control. However, it has been shown that the benzamide obtainable according to the disclosure of WO 2012/126932 A1 is not suitable for the preparation of user-friendly administration forms. User-friendly administration forms are, for example, suspension formulations in which the benzamide is present finely ground in solid form. […] The crystal growth can occur spontaneously or over a longer period and cannot be predicted.

[3] = stability test: storage of oil dispersion; conditions: after several weeks of storage

SMILES: Cc1nnc(NC(=O)c2ccc(C(F)(F)F)c(S(C)(=O)=O)c2C)o1 [2-methyl-N-(5-methyl-1,3,4-oxadiazol-2-yl)-3-(methylsulfonyl)-4-(trifluoromethyl)benzamide]
- wettability with solvents (in words) ([1]; solvents such as water and aqueous solvents): poorer wettability
- crystal growth in suspension formulations [2]: leads to crystal growth in suspension formulations and consequently to clumping and precipitation

SMILES: Cc1nnc(NC(=O)c2ccc(C(F)(F)F)c(S(C)(=O)=O)c2C)o1 [crystal modification A, 2-methyl-N-(5-methyl-1,3,4-oxadiazol-2-yl)-3-(methylsulfonyl)-4-(trifluoromethyl)benzamide]
- clumping and precipitation of oil dispersion on storage [3]: no signs of clumping and precipitation
- wettability ([1]; after 1 minute on mixing with water): 100%
